This series is described as follows: Metabolic stability in pooled human liver microsomes with or without NADPH. Type of series: in vitro ADME. Particulars: human, pooled human liver microsomes, pooled human liver microsomes 0.5 mg/mL in PBS, 1 uM test compound, 37° C. On the procedure: Pooled human liver microsomes in PBS at a concentration of 0.5 mg/mL was incubated with or without 1 mM NADPH for 70 min at 37° C. Test compound was added after 10 minutes to a final concentration of 1 uM. Samples were withdrawn at 0, 5, 15 and 60 minutes and added to test tubes containing acetonitrile, to stop the reaction, and with terfenadine, used as internal standard. After centrifugation at 10000×g for 5 minutes the supernatant was diluted 1:1 with 1% formic acid. Samples were separated on a reverse phase column and detected by triple quadrupole MSMS (Agilant model 6540). The concentration of the parent compound at the different time points was measured with an external standard curve using terfenadine as internal standard and the initial metabolic rate in the presence or absence of NADPH calculated.

Read-outs that look alike come from different tables or passages of the source. Some results are limits rather than exact numbers.

Take `CCc1nccn1Cc1ccc(-c2cc(CC(C)C)sc2S(=O)(=O)NC(=O)OCCO)cc1F` [Example 24, 2-Hydroxyethyl (3-(4-((2-ethyl-1H-imidazol-1-yl)methyl)-3-fluorophenyl)-5-isobutyl-thiophen-2-yl)sulfonylcarbamate]: the half-life at 1 uM is, setting by setting: (with 1 mM NADPH, read-out: T1/2, +NaDPH) over 1 h; (without NADPH, read-out: T1/2, no NaDPH) over 1 h.

For the origin of these results see patent US20230348444A1, “NOVEL COMPOUNDS FOR USE IN THE TREATMENT OF DISEASES ASSOCIATED WITH ANGIOTENSIN II” (Vicore Pharma AB, priority 2020, published 2023).
